Laboratory results as given in US9855243B2, “Topical anti-inflammatory pharmaceutical composition with zileuton cream formulation” (Qurient Co., Ltd., priority 2013, dated 2018).

Test: Solution stability test of zileuton in solvents (TRS %)
Assay type: physicochemical
Details: for TRS increase rate %: Day 0 to Day 8
Experimental: In the solution stability test, suitability with solvents for solubilizing zileuton (ethanol, PEG400, propylene glycol, hexylene glycol, capryol 90, benzyl alcohol, water) was screened.
As a result, as illustrated in Tables 2 and 3 below, most of the solvents were suitable to zileuton under the 25° C. condition, but were unstable under the condition of 40° C. or 70° C.

What does the source list for CC(c1cc2ccccc2s1)N(O)C(N)=O (racemic) [Zileuton, (±)-1-(1-(benzo [b]thiophen-2-yl)ethyl)-1-hydroxyurea]?
TRS (%) (in Benzyl alcohol, 25° C., Day 0): 1.642%; TRS increase rate % (in Benzyl alcohol, 25° C.): 0.381%; TRS (%) (in Benzyl alcohol, 25° C., Day 1): 0.869%; TRS (%) (in Benzyl alcohol, 25° C., Day 3): 1.806%; TRS (%) (in Benzyl alcohol, 25° C., Day 8): 2.023%; TRS (%) (in Benzyl alcohol, 70° C., Day 0): 1.642%; TRS increase rate % (in Benzyl alcohol, 70° C.): 22.608%; TRS (%) (in Benzyl alcohol, 70° C., Day 1): 11.350%; TRS (%) (in Benzyl alcohol, 70° C., Day 3): 20.397%; TRS (%) (in Benzyl alcohol, 70° C., Day 8): 24.250%; TRS (%) (in Capryol 90, 25° C., Day 0): 1.623%; TRS increase rate % (in Capryol 90, 25° C.): 0.578%; TRS (%) (in Capryol 90, 25° C., Day 1): 1.444%; TRS (%) (in Capryol 90, 25° C., Day 3): 1.478%; TRS (%) (in Capryol 90, 25° C., Day 8): 2.201%; TRS (%) (in Capryol 90, 70° C., Day 0): 1.623%; TRS increase rate % (in Capryol 90, 70° C.): 74.822%; TRS (%) (in Capryol 90, 70° C., Day 1): 10.312%; TRS (%) (in Capryol 90, 70° C., Day 3): 39.603%; TRS (%) (in Capryol 90, 70° C., Day 8): 76.445%; TRS (%) (in Ethanol, 25° C., Day 0): 1.255%; TRS increase rate % (in Ethanol, 25° C.): 0.882%; TRS (%) (in Ethanol, 25° C., Day 1): 1.014%; TRS (%) (in Ethanol, 25° C., Day 3): 1.951%; TRS (%) (in Ethanol, 25° C., Day 8): 2.137%; TRS (%) (in Ethanol, 40° C., Day 0): 1.255%; TRS increase rate % (in Ethanol, 40° C.): 3.449%; TRS (%) (in Ethanol, 40° C., Day 1): 1.778%; TRS (%) (in Ethanol, 40° C., Day 3): 2.375%; TRS (%) (in Ethanol, 40° C., Day 8): 4.704%; TRS (%) (in Hexylene glycol, 25° C., Day 0): 1.505%; TRS increase rate % (in Hexylene glycol, 25° C.): 0.475%; TRS (%) (in Hexylene glycol, 25° C., Day 1): 1.448%; TRS (%) (in Hexylene glycol, 25° C., Day 3): 1.583%; TRS (%) (in Hexylene glycol, 25° C., Day 8): 1.980%; TRS (%) (in Hexylene glycol, 70° C., Day 0): 1.505%; TRS increase rate % (in Hexylene glycol, 70° C.): 58.847%; TRS (%) (in Hexylene glycol, 70° C., Day 1): 8.061%; TRS (%) (in Hexylene glycol, 70° C., Day 3): 29.999%; TRS (%) (in Hexylene glycol, 70° C., Day 8): 60.352%; TRS (%) (in Polyethylene glycol (PEG-400), 25° C., Day 0): 1.427%; TRS increase rate % (in Polyethylene glycol (PEG-400), 25° C.): 2.638%; TRS (%) (in Polyethylene glycol (PEG-400), 25° C., Day 1): 1.491%; TRS (%) (in Polyethylene glycol (PEG-400), 25° C., Day 3): 2.897%; TRS (%) (in Polyethylene glycol (PEG-400), 25° C., Day 8): 4.065%; TRS (%) (in Polyethylene glycol (PEG-400), 70° C., Day 0): 1.427%; TRS increase rate % (in Polyethylene glycol (PEG-400), 70° C.): 95.715%; TRS (%) (in Polyethylene glycol (PEG-400), 70° C., Day 1): 43.725%; TRS (%) (in Polyethylene glycol (PEG-400), 70° C., Day 3): 94.366%; TRS (%) (in Polyethylene glycol (PEG-400), 70° C., Day 8): 97.142%; TRS (%) (in Propylene glycol, 25° C., Day 0): 1.457%; TRS increase rate % (in Propylene glycol, 25° C.): 0.675%; TRS (%) (in Propylene glycol, 25° C., Day 1): 1.624%; TRS (%) (in Propylene glycol, 25° C., Day 3): 1.478%; TRS (%) (in Propylene glycol, 25° C., Day 8): 2.132%; TRS (%) (in Propylene glycol, 70° C., Day 0): 1.457%; TRS increase rate % (in Propylene glycol, 70° C.): 94.868%; TRS (%) (in Propylene glycol, 70° C., Day 1): 26.382%; TRS (%) (in Propylene glycol, 70° C., Day 3): 82.228%; TRS (%) (in Propylene glycol, 70° C., Day 8): 96.325%; TRS (%) (in Water, 25° C., Day 0): 1.424%; TRS increase rate % (in Water, 25° C.): 0.541%; TRS (%) (in Water, 25° C., Day 1): 1.879%; TRS (%) (in Water, 25° C., Day 3): 1.816%; TRS (%) (in Water, 25° C., Day 8): 1.965%; TRS (%) (in Water, 70° C., Day 0): 1.424%; TRS increase rate % (in Water, 70° C.): 90.570%; TRS (%) (in Water, 70° C., Day 1): 35.171%; TRS (%) (in Water, 70° C., Day 3): 80.268%; TRS (%) (in Water, 70° C., Day 8): 91.994%
